Read-outs that look alike come from different tables or passages of the source.
Assays:
[1] = test system: A498 renal cell carcinoma cell line; assay: MTT cytotoxicity assay, A498; conditions: Homo sapiens, A498, 24 h
Procedure: (§1) The MTT test was used to evaluate the inhibitory effects of the substances on cell proliferation in the aforementioned cell lines. This colorimetric assay targets the mitochondrial succinate dehydrogenase of living cells to change yellow tetrazolium bromide (MTT) to a purple formazan derivative. […] Then, the cells were incubated for 24 h and exposed to various chemical concentrations. 20 μL of a 5 mg/mL MTT solution was applied after a 24-h drug treatment period and incubated for 4 h. To dissolve the produced purple formazan, each well receives 100 μL of dimethyl sulfoxide (DMSO). […] The formula for calculating the relative percentage of cell viability was (A570 of treated samples/A570 of the untreated sample) × 100.

[2] = test system: A549 non-small cell lung cancer (NSCLC) cell line; assay: MTT cytotoxicity assay, A549; conditions: Homo sapiens, A549, 24 h
Procedure: as §1

human topoisomerase II = human topoisomerase II (Homo sapiens, UniProt P11388); assay: DNA Topo II inhibition (kDNA decatenation) assay; type: biochemical; conditions: for IC50: kDNA decatenation, four concentrations 0.1-100 µM, mean ± SD of two independent assays
Procedure: The ATP-dependent decatenation of kinetoplast DNA (kDNA) obtained from Crithidia fasciculata, which consists of a network of numerous minicircles (2.3 Kb) and some maxicircles, was used to measure topoisomerase II inhibition. Reactions took place in 20 μL and comprised topoisomerase II, 200–300 ng of kDNA, and 120 mM KCl with 50 mM Tris-HCl, pH 8, 10 mM MgCl2, 0.5 mM ATP, and 0.5 mM dithiothreitol. In preliminary tests, the quantity of topoisomerase II (5 units) was changed to decatenate almost 100% of the kDNA under these assay circumstances. […] The products in the reaction mixture were separated by a 1% agarose gel after the reaction was complete and then could be seen after being stained with ethidium bromide (0.2 μg/mL). The gels were run at 100 V for about 40 min and visualised under UV transillumination.
This assay is based on the fact that human Topo II can decatenate interlinked double-stranded DNA molecules.

[3] = test system: MCF7 breast cancer cell line; assay: MTT cytotoxicity assay, MCF7; conditions: MCF7, MTT
Procedure: as §1
The newly prepared compounds were screened against three cancer cell lines: namely, breast cancer cell line MCF7, non-small cell lung cancer (NSCLC) cell line A549, and renal cancer cell line A498, using the MTT colorimetric assay.

[4] = read-out: Cytotoxicity IC50 A498± SD, MTT, A498, 24 h treatment, mean ± SD of two independent assays
[5] = read-out: Cytotoxicity IC50 A549± SD, MTT, A549, 24 h treatment, mean ± SD of two independent assays

human topoisomerase II, sequence (P11388 whole entry): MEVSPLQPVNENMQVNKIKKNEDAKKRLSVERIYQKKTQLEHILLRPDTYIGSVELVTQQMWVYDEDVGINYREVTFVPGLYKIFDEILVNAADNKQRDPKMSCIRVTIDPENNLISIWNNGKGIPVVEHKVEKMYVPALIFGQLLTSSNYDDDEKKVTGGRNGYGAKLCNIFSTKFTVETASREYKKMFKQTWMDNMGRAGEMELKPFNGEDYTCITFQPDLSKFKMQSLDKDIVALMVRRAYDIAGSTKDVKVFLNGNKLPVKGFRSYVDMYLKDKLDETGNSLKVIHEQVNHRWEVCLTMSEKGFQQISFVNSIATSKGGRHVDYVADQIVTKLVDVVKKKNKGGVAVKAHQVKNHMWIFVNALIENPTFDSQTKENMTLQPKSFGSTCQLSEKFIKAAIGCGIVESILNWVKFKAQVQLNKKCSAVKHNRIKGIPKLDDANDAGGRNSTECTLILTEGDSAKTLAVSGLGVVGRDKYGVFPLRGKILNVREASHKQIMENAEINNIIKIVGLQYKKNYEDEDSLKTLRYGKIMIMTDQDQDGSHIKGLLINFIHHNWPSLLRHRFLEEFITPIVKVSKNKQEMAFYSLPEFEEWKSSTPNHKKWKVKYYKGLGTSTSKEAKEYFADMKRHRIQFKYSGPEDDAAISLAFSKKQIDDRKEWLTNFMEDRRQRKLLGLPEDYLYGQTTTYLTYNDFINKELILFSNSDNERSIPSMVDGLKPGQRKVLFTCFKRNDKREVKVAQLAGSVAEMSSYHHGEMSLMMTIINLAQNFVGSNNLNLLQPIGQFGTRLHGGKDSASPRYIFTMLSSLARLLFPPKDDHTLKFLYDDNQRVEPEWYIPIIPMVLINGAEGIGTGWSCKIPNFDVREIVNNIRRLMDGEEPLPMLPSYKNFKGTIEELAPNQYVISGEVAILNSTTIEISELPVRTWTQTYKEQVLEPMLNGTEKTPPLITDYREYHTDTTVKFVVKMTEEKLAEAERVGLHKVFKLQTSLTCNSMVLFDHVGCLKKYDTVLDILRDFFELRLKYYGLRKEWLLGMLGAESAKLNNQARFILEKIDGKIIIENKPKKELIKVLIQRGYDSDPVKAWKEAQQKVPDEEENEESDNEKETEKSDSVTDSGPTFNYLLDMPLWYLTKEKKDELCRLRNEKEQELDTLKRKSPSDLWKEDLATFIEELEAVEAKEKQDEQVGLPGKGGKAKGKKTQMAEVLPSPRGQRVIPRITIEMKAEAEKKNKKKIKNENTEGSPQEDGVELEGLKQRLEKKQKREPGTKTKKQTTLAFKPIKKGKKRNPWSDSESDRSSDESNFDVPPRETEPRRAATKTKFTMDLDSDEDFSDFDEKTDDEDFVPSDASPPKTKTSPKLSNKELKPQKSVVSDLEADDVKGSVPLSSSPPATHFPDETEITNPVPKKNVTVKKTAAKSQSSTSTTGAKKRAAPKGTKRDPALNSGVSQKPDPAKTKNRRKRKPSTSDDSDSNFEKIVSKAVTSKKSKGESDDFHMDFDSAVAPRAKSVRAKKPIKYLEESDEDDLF

Compound | melting point | IC50 [1, 4] | IC50 [2, 5] | %inh TOPO II (human topoisomerase II; conc 0.1 (μM)) | %inh TOPO II (human topoisomerase II; conc 1 (μM)) | %inh TOPO II (human topoisomerase II; conc 10 (μM)) | %inh TOPO II (human topoisomerase II; conc 100 (μM)) | IC50 (human topoisomerase II) | other results
CCOC(=O)C1=C(C)N=C2SC=C(N)N2C1c1ccc(OC)cc1OC (stereo not shown) [Compound 2, ethyl 3-amino-5–(2,4-dimethoxyphenyl)-7-methyl-5H-thiazolo[3,2-a] pyrimidine-6-carboxylate] | 172 to 174 °C | 332 nM | 23 nM | – | – | – | – | – | –
CCOC(=O)C1=C(C)N=C2SCC(=O)N2C1c1ccc(OC)cc1OC (stereo not shown) [Compound 3a, Ethyl 5–(2,4-dimethoxyphenyl)-7-methyl-3-oxo-3,5-dihydro-5H-thiazolo[3,2-a] pyrimidine-6-carboxylate] | 195 to 197 °C | 73 nM | 93 nM | – | – | – | – | – | –
CCOC(=O)C1=C(C)N=c2sc(=Cc3ccc(OC)cc3)c(=O)n2C1c1ccc(OC)cc1OC (stereo not shown) [Compound 3b, Ethyl 5–(2,4-dimethoxyphenyl)-2–(4-methoxybenzylidene)-7-methyl-3-oxo-2,3-dihydro-5H-thiazolo[3,2-a]pyrimidine-6-carboxylate] | 175 to 177 °C | 46 nM | 24 nM | 19% | 30% | 48% | 80% | 6140 ± 360 nM | –
CCOC(=O)C1=C(C)N=c2sc(=Cc3ccc(OC)cc3OC)c(=O)n2C1c1ccc(OC)cc1OC (stereo not shown) [Compound 3c, Ethyl 2–(2,4-dimethoxybenzylidene)-5–(2,4-dimethoxyphenyl)-7-methyl-3-oxo-2,3-dihydro-5H-thiazolo[3,2-a]pyrimidine-6-carboxylate] | – | 9 nM | 19 nM | 31% | 45% | 63% | 89% | 1390 ± 80 nM | –
CCOC(=O)C1=C(C)N=c2sc(=Cc3cc(OC)c(OC)c(OC)c3)c(=O)n2C1c1ccc(OC)cc1OC (stereo not shown) [Compound 3d, Ethyl 5–(2,4-dimethoxyphenyl)-7-methyl-3-oxo-2–(3,4,5-trimethoxybenzylidene)-2,3-dihydro-5H-thiazolo[3,2-a]pyrimidine-6-carboxylate] | 190 to 192 °C | 4 nM | 12 nM | 28% | 41% | 59% | 85% | 2210 ± 130 nM | –
CCOC(=O)C1=C(C)N=C2SC=C(NC(=O)c3ccc(Cl)cc3)N2C1c1ccc(OC)cc1OC (stereo not shown) [Compound 4a, Ethyl 3–(4-chlorobenzamido)-5–(2,4-dimethoxyphenyl)-7-methyl-5H-thiazolo[3,2-a]pyrimidine-6-carboxylate] | 150 to 152 °C | – | – | – | – | – | – | – | –
CCOC(=O)C1=C(C)N=C2SC=C(NC(=O)CCl)N2C1c1ccc(OC)cc1OC (stereo not shown) [Compound 5, ethyl 3–(2-chloroacetamido)-5–(2,4-dimethoxyphenyl)-7-methyl-5H-thiazolo[3,2-a]pyrimidine-6-carboxylate] | 150 to 152 °C | – | – | – | – | – | – | – | –
CCOC(=O)C1=C(C)N=C2SC=C(NC(=O)CN3CCN(CC)CC3)N2C1c1ccc(OC)cc1OC (stereo not shown) [Compound 6a] | – | 2 nM | 8 nM | 26% | 42% | 67% | 83% | 1880 ± 110 nM | –
CCOC(=O)C1=C(C)N=C2SC=C(NC(=O)CN3CCOCC3)N2C1c1ccc(OC)cc1OC (stereo not shown) [Compound 6b] | – | 10 nM | 6 nM | 28% | 44% | 67% | 88% | 1510 ± 90 nM | –
CCOC(=O)C1=C(C)N=C2SC=C(NC(=O)Nc3ccc(Cl)cc3)N2C1c1ccc(OC)cc1OC (stereo not shown) [Compound 7a, Ethyl 3–(3-(4-chlorophenyl)ureido)-5–(2,4-dimethoxyphenyl)-7-methyl-5H-thiazolo[3,2-a]pyrimidine-6-carboxylate] | – | – | – | 20% | 34% | 57% | 84% | 3560 ± 210 nM | –
CCOC(=O)C1=C(C)N=C2SC=C(NC(=O)Nc3ccc(Cl)c(C(F)(F)F)c3)N2C1c1ccc(OC)cc1OC (stereo not shown) [Compound 7b, Ethyl 3–(3-(4-chloro-3-(trifluoromethyl)phenyl)ureido)-5–(2,4-dimethoxyphenyl)-7-methyl-5H-thiazolo[3,2-a]pyrimidine-6-carboxylate] | – | 9 nM | 19 nM | 28% | 52% | 71% | 88% | 1050 ± 60 nM | –
COc1cccc2c1C(=O)c1c(O)c3c(c(O)c1C2=O)C[C@@](O)(C(=O)CO)C[C@@H]3O[C@H]1C[C@H](N)[C@H](O)[C@H](C)O1 [Doxorubicin, reference compound] | – | – | – | 30% | 51% | 77% | 90% | – | IC50 ([1]; read-out: Cytotoxicity IC50 A498± SD): 7 nM; IC50 ([2]; read-out: Cytotoxicity IC50 A549± SD): 13 nM
Ethyl 5–(2,4-dimethoxyphenyl)-7-methyl-3-((2-oxo-2-(piperazin-1-yl)ethyl)amino)-5H-thiazolo[3,2-a]pyrimidine-6-carboxylate [Compound 6c] | – | – | – | – | – | – | – | – | % viability ([3]; 0.4ug): 77.067%; % viability ([3]; 1.6ug): 70.045%; % viability ([3]; 6.3ug): 60.702%; % viability ([3]; 25ug): 51.13%; % viability ([3]; 100ug): 43.771%
ethyl 4–(2,4-dimethoxyphenyl)-6-methyl-2-thioxo-1,2,3,6-tetrahydropyrimidine-5-carboxylate [Compound 1] | – | – | – | – | – | – | – | – | % viability ([3]; 0.4ug): 81.002%; % viability ([3]; 1.6ug): 67.624%; % viability ([3]; 6.3ug): 61.271%; % viability ([3]; 25ug): 51.07%; % viability ([3]; 100ug): 44.533%

— publication PMC9930781, “Design, synthesis, docking, and anticancer evaluations of new thiazolo[3,2-a] pyrimidines as topoisomerase II inhibitors” (Journal of Enzyme Inhibition and Medicinal Chemistry, 2023)
